# Data published in article PMC7914897, “Cytotoxic Potential of a-Azepano- and 3-Amino-3,4-SeCo-Triterpenoids” (International Journal of Molecular Sciences, 2021).
# Assays:
# [1] = system: A549/ATCC (NSC lung cancer); test: NCI-60 screen (SRB, 48 h); conditions: Homo sapiens; for GI50: A549; for IC (TGI): A549, 48 h, read-out: TGI; for CC50: A549, read-out: LC50
# [2] = system: OVCAR-5 (Ovarian cancer); test: NCI-60 screen (SRB, 48 h); conditions: Homo sapiens; for GI50: OVCAR-5; for IC (TGI): OVCAR-5, 48 h, read-out: TGI; for CC50: OVCAR-5, read-out: LC50
# [3] = system: SK-MEL-2 (Melanoma); test: NCI-60 screen (SRB, 48 h); conditions: Homo sapiens; for GI50: SK-MEL-2; for IC (TGI): SK-MEL-2, 48 h, read-out: TGI
# [4] = system: SF-295 (CNS cancer); test: NCI-60 screen (SRB, 48 h); conditions: Homo sapiens; for GI50: SF-295; for IC (TGI): SF-295, 48 h, read-out: TGI; for CC50: SF-295, read-out: LC50
# [5] = system: SF-268 (CNS cancer); test: NCI-60 screen (SRB, 48 h); conditions: Homo sapiens; for GI50: SF-268; for IC (TGI): SF-268, 48 h, read-out: TGI; for CC50: SF-268, read-out: LC50
# [6] = system: Breast cancer subpanel; test: NCI-60 screen, subpanel; conditions: Homo sapiens; for IC (TGI): 48 h, read-out: TGI MG_MID; for GI50: read-out: GI50 MG_MID; for CC50: read-out: LC50 MG_MID
# [7] = system: U251 (CNS cancer); test: NCI-60 screen (SRB, 48 h); conditions: Homo sapiens; for GI50: U-251; for IC (TGI): U-251, 48 h, read-out: TGI; for CC50: U-251, read-out: LC50
# [8] = system: SF-539 (CNS cancer); test: NCI-60 screen (SRB, 48 h); conditions: Homo sapiens; for GI50: SF-539; for IC (TGI): SF-539, 48 h, read-out: TGI; for CC50: SF-539, read-out: LC50
# [9] = system: M14 (Melanoma); test: NCI-60 screen (SRB, 48 h); conditions: Homo sapiens; for GI50: M14; for IC (TGI): M14, 48 h, read-out: TGI; for CC50: M14, read-out: LC50
# [10] = system: Ovarian Cancer subpanel; test: NCI-60 screen, subpanel; conditions: Homo sapiens; for IC (TGI): 48 h, read-out: TGI MG_MID; for GI50: read-out: GI50 MG_MID; for CC50: read-out: LC50 MG_MID
# [11] = system: NCI-H23 (NSC lung cancer); test: NCI-60 screen (SRB, 48 h); conditions: Homo sapiens; for GI50: NCI-H23; for IC (TGI): NCI-H23, 48 h, read-out: TGI; for CC50: NCI-H23, read-out: LC50
# [12] = system: SK-MEL-28 (Melanoma); test: NCI-60 screen (SRB, 48 h); conditions: Homo sapiens; for GI50: SK-MEL-28; for IC (TGI): SK-MEL-28, 48 h, read-out: TGI; for CC50: SK-MEL-28, read-out: LC50
# [13] = system: NCI-H522 (NSC lung cancer); test: NCI-60 screen (SRB, 48 h); conditions: Homo sapiens; for GI50: NCI-H522; for IC (TGI): NCI-H522, 48 h, read-out: TGI
# [14] = system: NSC lung cancer subpanel; test: NCI-60 screen, subpanel; conditions: Homo sapiens; for IC (TGI): 48 h, read-out: TGI MG_MID; for GI50: read-out: GI50 MG_MID; for CC50: read-out: LC50 MG_MID
# [15] = system: RXF 393 (Renal cancer); test: NCI-60 screen (SRB, 48 h); conditions: Homo sapiens; for GI50: RXF 393; for IC (TGI): RXF 393, 48 h, read-out: TGI; for CC50: RXF 393, read-out: LC50
# [16] = system: NCI-H460 (NSC lung cancer); test: NCI-60 screen (SRB, 48 h); conditions: Homo sapiens; for GI50: NCI-H460; for IC (TGI): NCI-H460, 48 h, read-out: TGI; for CC50: NCI-H460, read-out: LC50
# [17] = system: LOX IMVI (Melanoma); test: NCI-60 screen (SRB, 48 h); assay type: cell-based; conditions: Homo sapiens; for GI50: read-out: GI50
# [18] = system: CNS cancer subpanel; test: NCI-60 screen, subpanel; conditions: Homo sapiens; for IC (TGI): 48 h, read-out: TGI MG_MID; for GI50: read-out: GI50 MG_MID; for CC50: read-out: LC50 MG_MID
# [19] = system: CAKI-1 (Renal cancer); test: NCI-60 screen (SRB, 48 h); conditions: Homo sapiens; for GI50: CAKI-1; for IC (TGI): CAKI-1, 48 h, read-out: TGI; for CC50: CAKI-1, read-out: LC50
# [20] = system: HT29 (colorectal carcinoma); test: SRB cytotoxicity assay, 72 h; assay type: cell-based, human; conditions: Homo sapiens, HT-29; HT29, 72 h, cut-off 30 µM; read-out: EC50
# How it was run: (§1)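 Cells seeded, treated 24 h later with serial dilutions (0–30 µM; DMSO ≤0.5%) for 72 h. TCA-fixed, SRB-stained, absorbance read at 570 nm; survival relative to untreated controls gives EC50.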
# [21] = system: A2780 (ovarian carcinoma); test: SRB cytotoxicity assay, 72 h; assay type: cell-based, human; conditions: Homo sapiens; A2780, 72 h, cut-off 30 µM; read-out: EC50
# How it was run: as §1
# [22] = system: MCF-7 (breast carcinoma); test: SRB cytotoxicity assay, 72 h; assay type: cell-based, human; conditions: Homo sapiens, MCF7; MCF-7, 72 h, cut-off 30 µM; read-out: EC50
# How it was run: as §1
# [23] = system: A375 (malignant melanoma); test: SRB cytotoxicity assay, 72 h; assay type: cell-based, human; conditions: Homo sapiens, A-375, 72 h, A375, 72 h, cut-off 30 µM; read-out: EC50
# How it was run: as §1
# [24] = system: FaDu (hypopharyngeal carcinoma); test: SRB cytotoxicity assay, 72 h; assay type: cell-based, human; conditions: Homo sapiens, cut-off 30 µM, read-out: EC50
# How it was run: as §1
smiles,measurement,setting,value
C=C(C)[C@@H]1CC[C@]2(C)[C@H](C=CC3=C4C[C@@](C)(CO)CC[C@]4(C)CC[C@]32C)[C@@]1(C)CCCN [Compound 20],GI50,[1],1.6 µM
same,IC (TGI),[1],3.18 µM
same,CC50,[1],6.34 µM
same,GI50,[2],1.71 µM
same,IC (TGI),[2],3.06 µM
same,CC50,[2],5.57 µM
same,GI50,[3],1.92 µM
same,IC (TGI),[3],3.58 µM
same,CC50,"[3]; SK-MEL-2, read-out: LC50",6.66 µM
same,GI50,[4],1.78 µM
same,IC (TGI),[4],3.21 µM
same,CC50,[4],5.79 µM
same,GI50,[5],1.61 µM
same,IC (TGI),[5],3.25 µM
same,CC50,[5],6.56 µM
same,IC (TGI),[6],3.41 µM
same,GI50,[6],1.68 µM
same,CC50,[6],6.94 µM
same,GI50,[7],1.64 µM
same,IC (TGI),[7],3.32 µM
same,CC50,[7],6.72 µM
same,GI50,[8],1.73 µM
same,IC (TGI),[8],3.13 µM
same,CC50,[8],5.67 µM
same,GI50,[9],1.69 µM
same,IC (TGI),[9],3.34 µM
same,CC50,[9],6.62 µM
same,IC (TGI),[10],3.3 µM
same,GI50,[10],1.69 µM
same,CC50,[10],6.49 µM
same,GI50,[11],1.77 µM
same,IC (TGI),[11],3.32 µM
same,CC50,[11],6.24 µM
same,GI50,[12],1.82 µM
same,IC (TGI),[12],3.25 µM
same,CC50,[12],5.8 µM
same,GI50,[13],1.83 µM
same,IC (TGI),[13],3.63 µM
same,IC (TGI),[14],3.38 µM
same,GI50,[14],1.71 µM
same,CC50,[14],6.24 µM
same,GI50,[15],1.62 µM
same,IC (TGI),[15],3.07 µM
same,CC50,[15],5.81 µM
same,GI50,[16],1.71 µM
same,IC (TGI),[16],3.33 µM
same,CC50,[16],6.49 µM
same,IC (TGI),[17]; 48 h,2.7 µM
same,activity at 10 µM,"[17]; 48 h, 1 dose 10 µM, read-out: Growth % of the Most Sensitive Cell Lines",-100%
same,GI50,[17],1.37 µM
same,CC50,[17]; read-out: LC50 (the source's name),5.31 µM
same,IC (TGI),[18],3.18 µM
same,GI50,[18],1.67 µM
same,CC50,[18],6.04 µM
same,GI50,[19],1.52 µM
same,IC (TGI),[19],2.85 µM
same,CC50,[19],5.34 µM
same,EC50,[20],1.88 ± 0.3 µM
same,EC50,[21],4.35 ± 0.2 µM
same,EC50,[22],2.84 ± 0.2 µM
same,EC50,[23],3.13 ± 0.1 µM
same,EC50,[24],2.66 ± 0.2 µM
"C=C(C)C1CCC2(CO)CCC3(C)C(CCC4C5(C)CCCNC(C)(C)C5CCC43C)C12 (stereo not shown) [Compound 1, Azepanobetulin]",GI50,[1],1.73 µM
same,IC (TGI),[1],3.24 µM
same,CC50,[1],6.08 µM
same,GI50,[2],1.51 µM
same,IC (TGI),[2],2.89 µM
same,CC50,[2],5.52 µM
same,GI50,[3],1.84 µM
same,IC (TGI),[3],3.75 µM
same,GI50,[4],1.66 µM
same,IC (TGI),[4],3.13 µM
same,CC50,[4],5.9 µM
same,GI50,[5],1.74 µM
same,IC (TGI),[5],3.54 µM
same,CC50,[5],7.19 µM
same,IC (TGI),[6],3.55 µM
same,GI50,[6],1.71 µM
same,CC50,[6],11.5 µM
same,GI50,[7],1.65 µM
same,IC (TGI),[7],3.09 µM
same,CC50,[7],5.76 µM
same,GI50,[8],1.58 µM
same,IC (TGI),[8],3.01 µM
same,CC50,[8],5.72 µM
same,GI50,[9],1.58 µM
same,IC (TGI),[9],3.13 µM
same,CC50,[9],6.19 µM
same,IC (TGI),[10],3.18 µM
same,GI50,[10],1.65 µM
same,CC50,[10],6.24 µM
same,GI50,[11],1.71 µM
same,IC (TGI),[11],3.39 µM
same,CC50,[11],6.68 µM
same,GI50,[12],1.62 µM
same,IC (TGI),[12],3.15 µM
same,CC50,[12],6.13 µM
same,GI50,[13],1.65 µM
same,IC (TGI),[13],3.42 µM
same,IC (TGI),[14],3.35 µM
same,GI50,[14],1.71 µM
same,CC50,[14],6.49 µM
same,GI50,[15],1.68 µM
same,IC (TGI),[15],3.18 µM
same,CC50,[15],6.04 µM
same,GI50,[16],1.63 µM
same,IC (TGI),[16],3.21 µM
same,CC50,[16],6.3 µM
same,IC (TGI),[17]; 48 h,3.03 µM
same,GI50,[17],1.51 µM
same,IC (TGI),[18],3.15 µM
same,GI50,[18],1.65 µM
same,CC50,[18],5.98 µM
same,GI50,[19],1.55 µM
same,IC (TGI),[19],2.89 µM
same,CC50,[19],5.4 µM
same,EC50,[20],1.63 ± 0.3 µM
same,EC50,[21],2.39 ± 0.2 µM
same,EC50,[22],1.91 ± 0.1 µM
same,EC50,[23],2.52 ± 0.2 µM
same,EC50,[24],2.32 ± 0.3 µM
